Results from US6359168B1, “Compounds derived from menthol and use as refreshing agent” (Firmenich SA, priority 1998, dated 2002).

What was measured:
Assay type in all cases: in vivo, human
[1] = system: buccal mucosae; experiment: Taste and cooling effect of the compound when tasted
[2] = system: expert tasters; experiment: Chewing gum compared by expert tasters under blind conditions; conditions: 0.4 parts by weight in chewing gum
Experimental: Chewing gum was prepared from a Cafosa Navada Plus T 413-01chewing-gum base (18 parts by weight) (source: Cafosa Gum Products Technology, Barcelona, Spain), sugar (60 parts by weight, glucose (20 parts by weight) and glycerol (0.5 parts by weight). 0.8 parts by weight of citric acid and 1 part by weight of lemon flavouring according to the formula given in Example 8 were then added to this mixture. Under blind conditions, expert tasters then compared this chewing-gum base, without any additives, with chewing gums of the same composition to which certain compounds according to the invention had been added.

[3] = system: expert flavourists; experiment: Gelatin-based grapefruit confectioneries compared by expert flavourists under blind conditions; conditions: 0.05% by weight in gelatin-based grapefruit confectionery
Experimental: By a method which is known per se, grapefruit-flavoured confectioneries were prepared from 30 g gelatin, 175 g water, 150 g sugar and 200 g glucose. We then added 0.8% citric acid and 0.08% of a grapefruit flavouring of the formula given in Example 6. Under blind conditions, expert flavourists then compared this base preserve, without any additives, with preserve of the same composition to which certain compounds according to the invention had been added.

[4] = system: expert tasters; experiment: Orange drink compared by expert tasters under blind conditions; conditions: 0.003% in orange drink
Experimental: An orange-flavoured drink was prepared from a 65° Brix syrup which had been diluted to 10%, acidified with 1.5% citric acid and then flavoured with 0.01% of an orange flavouring of the following formula: Under blind conditions, expert tasters then compared this base drink, without any additives, with drinks of the same composition to which certain compounds according to the invention had been added.

[5] = system: expert flavourists; experiment: Lemon sorbets compared by expert flavourists under blind conditions; conditions: 0.05% by weight in lemon sorbet
Experimental: Lemon sorbets were prepared from the following ingredients using conventional techniques: 0.5% citric acid and 0.01% of lemon flavouring of the following formula were then added: Under blind conditions, expert flavourists then compared this lemon sorbet, without any additives, with sorbets of the same composition to which certain compounds according to the invention had been added.

[6] = system: expert flavourists; experiment: Grapefruit-flavoured sweets compared by expert flavourists under blind conditions; conditions: 0.05% in grapefruit-flavoured sweets
Experimental: Grapefruit-flavoured sweets were prepared from boiled sugar, 1% citric acid, and 0.05% of a grapefruit flavouring of the following formula: Under blind conditions, expert flavourists then compared these sweets, without any additives, with sweets of the same composition to which certain compounds according to the invention had been added.

Structure (SMILES) | cooling effect [1] | freshness [2] | freshness [3] | freshness [4] | freshness [5] | freshness [6]
CC(C)[C@@H]1CC[C@@H](C)C[C@H]1OC(=O)COCCOCCOCCO [(1R,2S,5R)-menthyl 11-hydroxy-3,6,9-trioxaundecanoate] | develops more particularly on the tongue and in the throat |  |  |  |  | 
COCCOCC(=O)O[C@@H]1C[C@H](C)CC[C@H]1C(C)C [(1R,2S,5R)-3-menthyl 3,6-dioxaheptanoate] |  | prolonged freshness | the same freshness effect |  |  | 
CC(C)[C@@H]1CC[C@@H](C)C[C@H]1OC(=O)COCCO [(1R,2S,5R)-3-menthyl (2-hydroxyethoxy)acetate] | immediately and intensely cooling |  |  |  |  | 
COCC(=O)O[C@@H]1C[C@H](C)CC[C@H]1C(C)C [(1R,2S,5R)-3-menthyl methoxyacetate, (1R,2S,5R)-3-methyl methoxyacetate] |  | prolonged freshness | leaves a freshness in the mouth | sensation of freshness which develops as an after-taste | pleasant freshness in the mouth | yielded a freshness
